From US20220169680A1 (priority 2018, published 2022)
“Also recorded” adds a separate entry of the source.

How the values were obtained:
[1] = tested on: LPS-induced acute lung injury in mice; conditions: mouse, in vivo; cited from earlier work
[2] = tested on: LPS-induced acute lung injury in mice; design: species or system C57 BL/6 male mice; conditions: mouse, in vivo
A549 cells [3] = format: cell-based
A549 cells [4] = format: cell-based; remark: listed apart in the source
HEK293T cells = format: cell-based
[5] = tested on: poly(I:C)-induced acute lung injury mouse model; design: species or system C57 BL/6 male mice; conditions: in vivo
HeLa cells = format: cell-based
[6] = tested on: 293T cell, HUVEC cell, HCT-116 cell, MKN-45 cell, MRCS cell, U397 cell and ESF-1 cell; format: cell-based
A549 cells [7] = format: cell-based; remark: listed apart in the source
[8] = tested on: 3′ UTR region of RELA gene; format: cell-based
A549 cells [9] = format: cell-based; remark: listed apart in the source
murine organs = tested on: murine organs; design: species or system C57 BL/6 male mice; conditions: mouse, in vivo
A549 cells [10] = format: cell-based; remark: listed apart in the source
MRCS cells = format: cell-based
[11] = tested on: LPS-induced acute lung injury in mice; design: species or system C57 BL/6 male mice; conditions: mouse, in vivo; remark: listed apart in the source
[12] = tested on: 3′ UTR region of COLLAGEN3A1 gene; format: cell-based

COc1cc(C2Oc3cc([C@H]4Oc5cc(O)cc(O)c5C(=O)[C@@H]4O)ccc3OC2CO)ccc1O (stereo partly shown) [silybin, reference compound]
effect on LPS-induced acute lung injury in mice [1]: can effectively reduce the LPS-induced acute lung injury in mice
effect on preventing lung injury (IL-6 in alveolar lavage fluid) [2]: had a tendency to prevent lung injury at this dose

DRLFFKCIYRRLKYGLKR [Jilin-2004(H5N1)-M2-44-61]
ability to carry small RNA into cells compared with the transfection reagent RNAiMax group, qPCR (A549 cells [3]): stronger than the transfection reagent RNAiMax group
ability to carry small RNA into cells, qPCR (A549 cells [3]): all had the ability to carry small RNA into cells
rank of ability to carry small RNA in the cell experiments (A549 cells [3]): the strongest ability to carry small RNA in the cell experiments
amount of cell entry versus incubation duration (A549 cells [4]): increased as the incubation duration increased
cell entry (A549 cells [4]): entered A549 cells
cell entry after 5 min incubation (A549 cells [4]): cell entry could be detected; also recorded: the entry into the cell was observed
cell entry at 30 min (A549 cells [4]): had a strong entry effect
cell entry at lower concentrations (A549 cells [4]): could still enter A549 cells
cell entry effect compared with TAT at the same time points (A549 cells [4]): much stronger than that of the positive control TAT polypeptide
cell entry effect compared with TAT positive control (A549 cells [4]): stronger than that of the TAT polypeptide
cell entry effect compared with existing cell-penetrating peptides (Table 4) (A549 cells [4]): significantly better cell entry effects than existing cell-penetrating peptides
cell entry effect compared with the other three penetrating polypeptides (A549 cells [4]): even better cell entry effect
cell-penetrating peptide function compared with positive control TAT (A549 cells [4]): stronger than that of the positive control TAT
difference in entry effects between 1 h, 3 h and 6 h (A549 cells [4]): little difference in entry effects
entry effect compared with other C-terminally truncated polypeptides (A549 cells [4]): even better entry effects than other polypeptides
carrying NS1-GFP plasmid into cells and GFP expression (HEK293T cells): could carry NS1-GFP plasmid into HEK293 cells, and GFP protein was expressed in the nucleus
ability to carry small RNA in murine organs compared with TAT [5]: stronger than that of TAT
cell penetration properties (HeLa cells): consistent with the results obtained using A549 cells
entry effect compared with other fragments in different cell lines [6]: even better entry effects
ability to carry FAM-labeled small RNA compared with transfection reagent RNAiMax (A549 cells [7]): stronger than that of the transfection reagent RNAiMax
ability to carry small RNA compared with TAT at the same concentration (A549 cells [7]): significantly stronger
carrying FAM-labeled small RNA into cells (A549 cells [7]): can all carry small RNA into cells
ability to carry PGY-dsRNA-6 compared with positive control TAT [8]: stronger than that of the positive control TAT
carrying PGY-dsRNA-6 into cells and fulfilling its function (luciferase reporter) [8]: could all carry PGY-dsRNA-6 into cells and fulfill its function
cell-penetrating peptide effect compared with transfection reagent RNAiMax [8]: close to the transfection reagent RNAiMax
carrying Cy3-labeled small RNA into cells (super high resolution microscope) (A549 cells [9]): can carry Cy3-labeled small RNA into A549 cells
effect compared with RNAiMax or TAT (super high resolution microscope) (A549 cells [9]): stronger than that of the transfection reagent RNAiMax or of TAT
ability to deliver small RNA compared with TAT (murine organs): significantly stronger than that of TAT
murine organs or tissues in which small RNA was detected (murine organs): detected in 8 murine organs or tissues, including heart, liver, spleen, lung, kidney, stomach, small intestine and thymus
delivery of small RNAs to murine organs (murine organs; ip): could effectively deliver small RNAs (PGY-sRNA-23 and PGY-sRNA-26) to murine organs
carrying Cy3-labeled small RNA into cells (A549 cells [10]): can carry small RNA into cells
effect compared with transfection reagent RNAiMax (A549 cells [10]): stronger than that of the transfection reagent RNAiMax
effect on preventing lung injury (IL-6 in alveolar lavage fluid) [2]: had no effect on preventing lung injury
cell penetration properties (MRCS cells): consistent with the results obtained using A549 cells
entry of miR1246 antagomir into lung tissue of mice [11]: could improve the entry of miR1246 antagomir into lung tissue of mice
ability to carry HJT-sRNA-m7 compared with positive control TAT [12]: stronger than that of the positive control TAT
carrying HJT-sRNA-m7 into cells and fulfilling its function (luciferase reporter) [12]: could carry HJT-sRNA-m7 into cells and fulfill its function
cell-penetrating peptide effect compared with transfection reagent RNAiMax [12]: close to the transfection reagent RNAiMax
